Data on 7 molecules can be found in PMC11653397, “Elucidating the Metabolism of Chiral PCB95 in Wildtype and Transgenic Mouse Models with Altered Cytochrome P450 Enzymes Using Intestinal Content Screening” (Chemical Research in Toxicology, 2024).

SMILES strings stand for the structures. Several values for one entry are separate records, joined by “and”; a condition that tells them apart may be missing. Identical values can stand only once. Like-named read-outs stand apart in the source and are kept apart here.

The nature of data set [1]: GC-MS/MS levels of PCB95 and total hydroxylated metabolites in intestinal content of orally exposed mice. To be noted: for concentration at 24 h: mouse, intestinal content (distal colon and rectum), po, 1 mg/kg. Here is the method:
The intestinal content samples used in this study were generated as part of a published study of the atropselective disposition of PCB95 and its hydroxylated metabolites in mice.[48] […] This PCB dose is frequently used in PCB developmental neurotoxicity studies in rodent models.[21],[49]−[52] Blank tissue samples to assess the background contamination with PCB95 were generated in parallel by administering corn oil alone to mice (1–3 mice per group). The animals were euthanized 24 h after exposure, and intestinal content samples from the dissected distal colon and rectum were collected. Samples were stored at −80 °C in separate plastic bags and shipped on dry ice to the University of Iowa for analysis.
PCB95 and total OH-PCB95 metabolite levels were determined in intestinal content samples after deconjugation of sulfate and glucuronide conjugates using published methods with modifications.[53] Briefly, intestinal content samples (50 ± 22 mg, n = 38) were homogenized with a TissueRuptor (Qiagen, Hilden, Germany) in 3 mL of 0.2 M sodium acetate buffer (pH 5) in glass tubes and spiked with 4-PCB52 sulfate (100 ng in DMSO) as a surrogate standard. After adding 50 μL of sulfatase (type H-2 from Helix pomatia, Sigma-Aldrich, Burlington, MA, USA), the samples were kept at 37 °C for 16 h in a shaking water bath. Samples were quenched with 1 mL of 6 M HCl, and the surrogate standards (50 ng of PCB117 in isooctane and 50 ng of 4′-159 in methanol) were added to the incubation system. Subsequently, 5 mL of 2-propanol and 5 mL of a 1:1 hexane–MTBE mixture (v/v) were added. The samples were inverted for 5 min and centrifuged at 1690g for 5 min to facilitate the phase separation. Next, the organic phases were transferred to new glass tubes with 3 mL of 1% KCl solution, the aqueous phases were re-extracted with 3 mL of hexane, and the organic phases were combined with the above extract. After inverting and centrifugation, the organic phases were collected, and the aqueous KCl phases were re-extracted with 3 mL of hexane. The combined extracts were evaporated to near dryness using a Savant SpeedVac SPD210 vacuum concentrator (Thermo Scientific, Waltham, MA, USA) coupled with an RVT5105 refrigerated vapor trap (Thermo Scientific, Waltham, MA, USA), and each sample was reconstituted with 0.5 mL of hexane.
Five drops of methanol and 0.5 mL of diazomethane (about 5 mmol) in diethyl ether were added to the intestinal content extracts to derivatize the OH-PCBs.[43] The samples were stored at 4 °C for approximately 16 h for derivatization, and excess diazomethane was removed under a gentle stream of nitrogen in a fume hood. The extract was reconstituted to 0.5 mL of dichloromethane and was loaded onto a glass SPE cartridge filled with 2 g of acidified silica gel (silica gel/H2SO4, 2:1, w/w) with 0.2 g of deactivated silica gel on the bottom.[14] The PCB and metabolites were eluted from the SPE cartridge with 14 mL of dichloromethane; the eluent was concentrated with a Savant SpeedVac SPD210 vacuum concentrator (Thermo Scientific) to near dryness, and the solvent was exchanged to 4 mL of hexane. The extracts were treated with 4 mL of concentrated sulfuric acid for further lipid removal.[14] The organic phase was concentrated to near dryness with a Savant SpeedVac SPD210 vacuum concentrator (Thermo Scientific) and spiked with an internal standard (50 ng of PCB204 in isooctane) for gas chromatographic quantification of PCB95 and its hydroxylated metabolites (as methylated derivatives).
PCB95 and metabolite determinations were conducted on an Agilent 7890B gas chromatograph equipped with an Agilent 7000D Triple Quad and an Agilent 7693 autosampler in the multiple reaction monitoring setting (GC–MS/MS).[14] Gas chromatographic separations were performed with an SPB-Octyl capillary column (30 m length, […], 0.25 μm film thickness; Supelco, Bellefonte, PA, USA).

Another data set relates to CYP2A6. Also noted: method as in PMID 30576102, PMID 27989147. Conditions: pooled human liver microsomes, recombinant cytochrome P450 enzymes; cited from earlier work. For orientation: Liver microsomes are a subcellular fraction often used to study metabolism.
The conditions of data set [2]: mouse hepatic microsomes; cited from earlier work.
For data set [3] the following is noted: rat hepatic microsomes; cited from earlier work.
On the set-up of data set [4]: method as in doi:10.1016/0045-6535(75)90032-6. To be noted: mice exposed orally to PCB95; cited from earlier work.
Details of data set [5]: method as in doi:10.1016/0045-6535(75)90032-6. Conditions: rats exposed orally to PCB95; cited from earlier work.
The nature of data set [6]: Atropselective GC-ECD analysis (enantiomeric fraction) of PCB95 in intestinal content. To be noted: for Enantiomeric fraction (EF) of PCB95 residues in the intestinal content: EF=AE1/(AE1+AE2), racemic standard EF 0.498±0.004, oral 1.0 mg/kg bw, 24 h. Type of data set: in vivo, mice. Here is the method:
Atropselective analyses of PCB95 were performed using an Agilent 7890A gas chromatograph with a ^63Ni-μECD detector and a Chirasil-Dex CB capillary column (25 m length, 250 μm inner diameter, 0.25 μm film thickness; Agilent, Santa Clara, CA, USA).[52] The following temperature program was used: 50 °C, hold for 1 min, 10 °C/min to 150 °C, hold for 65 min, 15 °C/min to 200 °C, and hold for 15 min. The injector and detector temperatures were 250 °C. Helium was used as carrier gas with a flow rate of 3.0 mL/min; argon-methane 5% was used as makeup gas with a 60 mL/min flow rate. The enantiomeric fraction (EF) values were calculated with the valley drop method[55] as EF = AE1/(AE1 + AE2), where AE1 and AE2 are the peak area of the first (E1) and the second eluting (E2) atropisomers, respectively.

The mark [7] stands for this setting: female, CYP2A6-transgenic/Cyp2abfgs-null (KI).
Setting [8] is: male, CYP2A6-transgenic/Cyp2abfgs-null (KI).
[9] abbreviates: two-way ANOVA with Bonferroni correction.

With `Oc1c(Cl)cc(Cl)c(-c2cc(Cl)ccc2Cl)c1Cl` [3-103, 2,4,6-trichloro-3-(2,5-dichlorophenyl)phenol], the concentration at 24 h worked out at 17 ± 11 ng/g in data set [1] (setting [7]); 14 ± 7 ng/g in data set [1] (female, Cyp2abfgs-null (KO)); 14 ± 6 ng/g in data set [1] (female); 6 ± 6 ng/g in data set [1] (setting [8]); 6 ± 2 ng/g in data set [1] (male, Cyp2abfgs-null (KO)); 7 ± 4 ng/g in data set [1] (male).

For `Oc1cc(Cl)c(-c2c(Cl)ccc(Cl)c2Cl)cc1Cl` [4'-95, 2,2′,3,5′,6-pentachlorobiphenyl-4′-ol], in the data set on CYP2A6, the “Rank among PCB95 metabolites formed by human liver microsomes and recombinant P450 (CYP2A6)” value is “major metabolite”. Moreover, the “Rank among PCB95 metabolites formed by liver microsomes” value in data set [2] is “minor metabolites”. In addition, the concentration at 24 h in data set [1] (setting [7]) amounted to 764 ± 831 ng/g; in data set [1] (female, Cyp2abfgs-null (KO)) it was 414 ± 254 ng/g; in data set [1] (female) it was 356 ± 192 ng/g; in data set [1] (setting [8]), 298 ± 240 ng/g; in data set [1] (male, Cyp2abfgs-null (KO)), 447 ± 159 ng/g; in data set [1] (male) it was 452 ± 269 ng/g.

Take `Oc1c(O)c(Cl)c(-c2cc(Cl)ccc2Cl)c(Cl)c1Cl` [4,5-95, 3,4,6-trichloro-5-(2,5-dichlorophenyl)benzene-1,2-diol]: in data set [1] (all intestinal content samples, all exposure groups), the “Rank among OH-PCB95 metabolites in intestinal content” value was “major metabolite”. Further, the concentration at 24 h in data set [1] (setting [7]) is 1670 ± 1290 ng/g; in data set [1] (female, Cyp2abfgs-null (KO)), 527 ± 255 ng/g; in data set [1] (female), 1090 ± 492 ng/g; in data set [1] (setting [8]) it was 570 ± 376 ng/g; in data set [1] (male, Cyp2abfgs-null (KO)), 1030 ± 507 ng/g; in data set [1] (male), 1410 ± 574 ng/g.

As to `Oc1cc(Cl)c(-c2cc(Cl)ccc2Cl)c(Cl)c1Cl` [4-95, 2,2′,3,5′,6-pentachlorobiphenyl-4-ol], the “Rank among PCB95 metabolites formed by liver microsomes” value in data set [2] was “minor metabolites”. Also, the concentration at 24 h in data set [1] (setting [7]) stood at 434 ± 352 ng/g; in data set [1] (female, Cyp2abfgs-null (KO)), 192 ± 70 ng/g; in data set [1] (female), 248 ± 109 ng/g; in data set [1] (setting [8]) it was 160 ± 134 ng/g; in data set [1] (male, Cyp2abfgs-null (KO)), 177 ± 68 ng/g; in data set [1] (male), 238 ± 134 ng/g.

Consider `Oc1cc(Cl)c(Cl)c(-c2cc(Cl)ccc2Cl)c1Cl` [5-95, 2,2′,3,5′,6-pentachlorobiphenyl-5-ol], for which the “Rank among PCB95 metabolites formed by hepatic microsomes” value in data set [3] was “major PCB95 metabolite”. Besides, the “Rank among PCB95 metabolites in feces” value in data set [4] and in data set [5] was “major metabolite” in each case. Further, the “Rank among PCB95 metabolites formed by liver microsomes” value in data set [2] was “major PCB95 metabolite”. Also, the concentration at 24 h in data set [1] (setting [7]) came out at 934 ± 790 ng/g; in data set [1] (female, Cyp2abfgs-null (KO)), 359 ± 147 ng/g; in data set [1] (female) it was 544 ± 295 ng/g; in data set [1] (setting [8]), 300 ± 256 ng/g; in data set [1] (male, Cyp2abfgs-null (KO)) it was 333 ± 123 ng/g; in data set [1] (male), 424 ± 279 ng/g.

Regarding `Clc1ccc(Cl)c(-c2c(Cl)ccc(Cl)c2Cl)c1` [PCB95, 2,2′,3,5′,6-pentachlorobiphenyl], the “Enantiomeric fraction (EF) of PCB95 residues in the intestinal content” value in data set [6] (FKI (n=4)) was 0.44±0.03; in data set [6] (FKO (n=6)), 0.44±0.05; in data set [6] (FWT (n=6), 1 mg/kg), 0.39±0.05 and 0.39; in data set [6] (MKI (n=5)), 0.40±0.03; in data set [6] (MKO (n=7), 1 mg/kg) it was 0.45±0.04 and 0.45; in data set [6] (MWT (n=5)) it was 0.41±0.05. Besides, the concentration at 24 h in data set [1] (setting [7]) worked out at 110 ± 95 ng/g; in data set [1] (female, Cyp2abfgs-null (KO)), 26 ± 20 ng/g; in data set [1] (female) it was 26 ± 18 ng/g; in data set [1] (setting [8]) it was 33 ± 48 ng/g; in data set [1] (male, Cyp2abfgs-null (KO)) it was 139 ± 265 ng/g; in data set [1] (male), 39 ± 40 ng/g. In addition, the “PCB95 levels in the intestinal content, FKI vs MKI mice” value in data set [1] (setting [9]) is reported as “higher”. In addition, the “PCB95 levels in the intestinal content, MKO vs MKI mice” value in data set [1] (setting [9]) is given as “significantly higher”.

In the case of `Clc1ccc(Cl)c(-c2c(Cl)ccc(Cl)c2Cl)c1` [aS-PCB95], the “Atropisomeric enrichment in intestinal content” value in data set [6] (all intestinal content samples, irrespective of sex and genotype) is reported as “enriched”.
